Each structure is given as a SMILES string.

The subject of test [1] is purified human CD34+ progenitor cells. Conditions: concentrations 1-30 uM; 10 days liquid culture, CD41 by flow cytometry. Here is the method: (§1) 32D-mpl cells express Tpo-R and their survival is dependent on the presence of TPO. […] In this assay, purified human CD34+ progenitor cells were incubated in liquid culture with test compounds for 10 days and the number of cells expressing the transmembrane glycoprotein CD41 (gpIIb), a megakaryocytic marker, was then measured by flow cytometry (see Cwirla, S. E. et al Science, 1997, 276, 1696-1699).

The test system of a further test is 32D-mpl cells. Conditions: concentration 1-30 uM. The method, then:
as §1

For the molecule `Cl.Cl.Cl.Cl.Cl.Cl.Cl.Cl.O.O.c1cc(CN2CCCNCCNCCCNCC2)ccc1CN1CCCNCCNCCCNCC1` [Example 1, 1,1′-[1,4-Phenylenebis(methylene)]bis[1,4.8,11-tetraazacyclotetradecane]octahydrochloride Dihydrate], the “activity in the CD41 megakaryocytic assay” value in test [1] is reported as “showed activity”. In addition, the “proliferation of 32D-mpl cells” value with 32D-mpl cells was “promoted the proliferation”.

Values taken from patent publication US6498155B1, “Methods of treating thrombocytopenia” (SmithKline Beecham Corporation, priority 1998, dated 2002).
